Measured values published in patent US11738022B2, “Methods for inducing pupil dilation” (THE REGENTS OF THE UNIVERSITY OF COLORADO, A BODY CORPORATE, priority 2017, dated 2023).

How the values were obtained:
[1] = system: pupil; experiment: Pupil dilation measured with Neuroptics pupillometer after α-2 agonist pre-treatment and/or phenylephrine; format: in vivo, human
Method: Dilation medication used was Phenylephrine hydrochloride 10% (Akorn, Inc). Pupillometer used was a Neuroptics DP-2000 Binocular Pupillometer).
Dilation using phenylephrine hydrochloride 10% was conducted in both eyes of the test subject to use as a control against the other compounds being tested.
After this, dilation using phenylephrine hydrochloride 2.5% or phenylephrine hydrochloride 10% was conducted to investigate the effects of the compound on pupil dilation.
Apracionidine 0.5% was administered in the right eye of the test subject three (3) times a day for 4 days. After this, dilation using phenylephrine hydrochloride 10% was conducted to investigate the effects of the compound on pupil dilation.
After this, dilation using phenylephrine hydrochloride 10% was conducted to investigate the effects of the compound on pupil dilation.
A washout period of multiple months was undertaken in between each experiment.
Pupil measurements were obtained using a Neuroptics pupillometer. Parameters were as follows: Scotopic conditions for 1 second, followed by photopic conditions for 4 seconds (1258.925 lux), followed by scotopic conditions for 10 seconds. This allowed for investigation of scotopic pupil size, photopic pupil size, and scotopic pupil size recovery after the light stimulus concluded.
The pupils of the subject's pretreated right eye and untreated control left eye were then measured under both scotopic and photopic conditions for baseline measurements (FIG. 6A). Photopic conditions consisted of a 4 second window where a light was shining in both eyes simultaneously. […]
The experiment was repeated at a higher dosage wherein the subject was administered a second ophthalmic formulation containing 10% phenylephrine to both eyes. 30 minutes after instillation of 10% phenylephrine, the pupils of the subject were then measured under both scotopic and photopic conditions (FIG. 6C). […] Because the area of a circle is dependent on the radius squared (area of a circle=πr^2), the increase in area that is created from a increasing the pupil dilation size is not linear.
The results were then compared.

[2] = system: α receptors (α2:α1); conditions: affinity ratio; cited from earlier work
[3] = system: iris; conditions: men taking tamsulosin, 10 retrospective and prospective studies; cited from earlier work
[4] = after pre-treatment of right eye only, 3 times a day for 4 days, before phenylephrine
[5] = after pre-treatment of right eye only, 3 times a day for 4 days, before phenylephrine, left eye not treated
[6] = dilation pre and post treatment with α 2 agonist: treated eye vs control measurements of same eye
[7] = non-treated eye dilation compared to treated eye dilation
[8] = photopic conditions (1258.925 lux) after dilation with phenylephrine 10%
[9] = photopic conditions (1258.925 lux) after dilation with phenylephrine 10%, eye without pre-treatment
[10] = right eye pre-treated 3 times a day for 4 days, then phenylephrine 10% both eyes
[11] = right eye pre-treated 3 times a day for 4 days, then phenylephrine 10% both eyes, left eye not pre-treated

Cc1cccc([C@H](C)c2cnc[nH]2)c1C [Dexmedetomidine, dexmedetomidine]
increase of surgical work area compared to the pre-treatment control dilation amount in the same eye ([1]; after dilation with phenylephrine hydrochloride 10%): +220%
CH LStim Ave [1, 4]: 64%
CH RPupil Ave [1, 4]: 64%
CH RStim Ave [1, 4]: 64%
CH Right [1, 4]: 64%
CLAT LStim Ave [1, 4]: 0.36 s
CLAT RPupil Ave [1, 4]: 0.38 s
CLAT RStim Ave [1, 4]: 0.36 s
CLAT Right [1, 4]: 0.38 s
DELTA LStim Ave [1, 4]: 4.01 mm
DELTA RPupil Ave [1, 4]: 4.19 mm
DELTA RStim Ave [1, 4]: 4.01 mm
DV LStim Ave [1, 4]: 0.95 mm/s
DV RPupil Ave [1, 4]: 0.96 mm/s
DV RStim Ave [1, 4]: 0.95 mm/s
DV Right [1, 4]: 0.96 mm/s
MCV LStim Ave [1, 4]: 5.42 mm/s
MCV RPupil Ave [1, 4]: 5.84 mm/s
MCV RStim Ave [1, 4]: 5.42 mm/s
Max LStim Ave [1, 4]: 6.30 mm
Max RStim Ave [1, 4]: 6.30 mm
Max Right [1, 4]: 6.57 mm
Min LStim Ave [1, 4]: 2.29 mm
Min RPupil Ave [1, 4]: 2.38 mm
Min RStim Ave [1, 4]: 2.29 mm
Min Right [1, 4]: 2.38 mm
CH LPupil Ave [1, 5]: 64%
CH Left [1, 5]: 64%
CLAT LPupil Ave [1, 5]: 0.34 s
CLAT Left [1, 5]: 0.34 s
DELTA Left [1, 5]: 3.83 mm
DV Left [1, 5]: 0.94 mm/s
MCV Left [1, 5]: 4.99 mm/s
Max Left [1, 5]: 6.03 mm
Min Left [1, 5]: 2.20 mm
Pupil size change (%) [1, 6]: +78.83%
Surgical work area change (%) [1, 6]: +219.8%
Pupil size change (%) [1, 7]: +74.46%
Surgical work area (%) [1, 7]: +204.4%
Pupil size, Treated eye [1, 8]: 6.42 mm
Surgical Work area, Treated eye [1, 8]: 32.35 mm^2
Pupil size, Non-treated eye [1, 9]: 3.68 mm
Surgical Work area, Non-treated eye [1, 9]: 10.63 mm^2
CH LStim Ave [1, 10]: 46%
CH RPupil Ave [1, 10]: 34%
CH RStim Ave [1, 10]: 46%
CH Right [1, 10]: 34%
CLAT LStim Ave [1, 10]: 0.20 s
CLAT RPupil Ave [1, 10]: 0.16 s
CLAT RStim Ave [1, 10]: 0.20 s
CLAT Right [1, 10]: 0.16 s
DELTA LStim Ave [1, 10]: 4.22 mm
DELTA RPupil Ave [1, 10]: 3.31 mm
DELTA RStim Ave [1, 10]: 4.22 mm
DV LStim Ave [1, 10]: 0.94 mm/s
DV RPupil Ave [1, 10]: 0.80 mm/s
DV RStim Ave [1, 10]: 0.94 mm/s
DV Right [1, 10]: 0.80 mm/s
MCV LStim Ave [1, 10]: 3.24 mm/s
MCV RPupil Ave [1, 10]: 2.49 mm/s
MCV RStim Ave [1, 10]: 3.24 mm/s
Max LStim Ave [1, 10]: 9.27 mm
Max RStim Ave [1, 10]: 9.27 mm
Max Right [1, 10]: 9.73 mm
Min LStim Ave [1, 10]: 5.05 mm
Min RPupil Ave [1, 10]: 6.42 mm
Min RStim Ave [1, 10]: 5.05 mm
Min Right [1, 10]: 6.42 mm
CH LPupil Ave [1, 11]: 58%
CH Left [1, 11]: 58%
CLAT LPupil Ave [1, 11]: 0.24 s
CLAT Left [1, 11]: 0.24 s
DELTA Left [1, 11]: 5.13 mm
DV Left [1, 11]: 1.08 mm/s
MCV Left [1, 11]: 4.00 mm/s
Max Left [1, 11]: 8.81 mm
Min Left [1, 11]: 3.68 mm
α2:α1 affinity [2]: 1620

CCOc1ccccc1OCCN[C@H](C)Cc1ccc(OC)c(S(N)(=O)=O)c1 [tamsulosin]
risk of IFIS [3]: up to 90%
